# In PMC8253137, “Microbiota-derived butyrate is an endogenous HIF prolyl hydroxylase inhibitor” (Gut Microbes, 2021):
# Tests used:
# PHD2_181-402 [1] = target: T1, PHD2_181-402 (Homo sapiens, UniProt Q9GZT9); test: PHD2_181-402 inhibition assay (bioluminescent succinate detection, Succinate-Glo); format: biochemical
# Procedure: PHD2_181-402 activity and inhibition assays were performed with the Succinate-Glo JmjC Demethylase/Hydroxylase Assay Kit (Promega) according to manufacturer protocol and as detailed in Alves et al. […] The enzymatic reaction was incubated at room temperature for 10 minutes, after which succinate formation was detected according to manufacturer protocol. […] Then, 20 µL of Succinate Detection Reagent II was added to the reactions and incubated for 10 min at room temperature before the luciferase-generated luminescence was recorded on a plate-reading luminometer. Succinate standard curves were used to determine the sensitivity and linear range of the bioluminescent succinate detection. […] Succinate standards were serially diluted two-fold from 15 µM to 58.6 nM and a 0 succinate blank. 10 µL of succinate standards were used for detection as described above. […] Reactions were incubated at room temperature for 10 minutes and succinate detected. […] Measured IC50s were calculated from fitting the percentage activity data to the [Inhibitor] vs. normalized response – variable slope least squares nonlinear regression in GraphPad Prism 9. True IC50s were calculated from measured IC50s with the equation derived by Wu et al.[26] describing the relationship between the measured IC50 of an inhibitor and the percentage of substrate conversion.
# murine colon tissue = test: Rectal gavage in antibiotic-treated SCFA-depleted mice; format: in vivo; settings: after antibiotics
# Procedure: C57BL/6 mice were purchased from Jackson Laboratories. Animals were maintained and bred in standard housing conditions under 24 h/day, 7 days/week veterinary care available at the University of Colorado Anschutz Medical Campus (AMC) animal facility. All animal procedures were reviewed and approved by the Institutional Animal Care and Use Committee at AMC. 8 to 10-week-old male and female mice were pre-administered an antibiotic cocktail consisting of 1 mg/mL ampicillin, gentamicin, and neomycin, 0.5 mg/mL vancomycin, and 0.25 mg/mL metronidazole for 5 d ad libitum in addition to water control mice. Mice were then given 200 µL of tributyrin daily for three days using reusable feeding needles (18060–20, Fine Science Tools). On the third day, 4 h prior to sacrifice, select mice given tributyrin were rectally given 100 μL of 60 mM MCPA with plastic gavage tubes (FTP-20-38-50, Instech) inserted 1 cm into the rectum without surgical lubricant. Whole colon tissue at the site of the rectal gavage was collected for metabolite analysis, while colon whole tissue and epithelial scrapings upstream from the gavage site was collected for RNA and protein analysis. In the second butyrate reconstitution experiment, mice were rectally given 100 μL of 100 mM butyrate, 100 mM butyrate with 10 mM MCPA, 1.5 mM IOX2, or PBS control under anesthesia. Mice were then sacrificed 1 h after rectal supplementation and colon tissues collected for metabolite, mRNA, and protein analysis from the site of the rectal gavage.
# TRIzol® reagent (ThermoFisher Scientific) was used to isolate total RNA from T84 cells. Mouse colon tissue samples were harvested into RNAlater™ (Invitrogen) and stored at 4°C for 48 h. Total RNA was isolated from the tissues using RNeasy Plus Mini Kit (Qiagen). cDNA was prepared using the iScript cDNA Synthesis Kit (Bio-Rad). Quantitative PCR analysis was performed using the Power SYBR™ Green master mix (Applied Biosystems) in a thermocycler. Fold change in expression of target mRNA relative to β-actin (ACTB) mRNA was calculated using the delta-delta Ct method. Primer sequences used are as follows: hBNIP3 – forward, 5′- […] −3′, reverse, 5′- […] −3′; hBNIP3L – forward, 5′- […] −3′, reverse, 5′- […] −3′; hGLUT1 – forward, 5′- […] −3′, reverse, 5′- […] −3′; hACTB – forward, 5′- […]-3′, reverse, 5′- […]-3′; mBnip3 – forward, 5′- […] −3′, reverse, 5′- […] −3′; mBnip3l – forward, 5′- […] −3′, reverse, 5′- […] −3′; mGlut1 – forward, 5′- […] −3′, reverse, 5′- […] −3′; and mActb – forward, 5′- […] −3′, reverse, 5′- […] −3′.
# T84 cells were rinsed with PBS and collected and lysed in 200 µL of radioimmunoprecipitation assay (RIPA, 50 mM Tris-HCl pH 8.0, 1 mM EDTA, 1% Triton X-100, […], 0.5% sodium deoxycholate, 150 mM NaCl) buffer with protease inhibitors on ice. Mouse colon samples were harvested into 350 µL of RIPA buffer and flash frozen in liquid nitrogen. Samples were homogenized by sonication, and insoluble materials removed by centrifugation at 10,000 g for 5 min at 4°C. Protein quantity of the supernatant was determined using the Bradford reagent. Laemmli sample buffer was added to each sample. Samples (20 µg) were run and separated on 8% SDS-PAGE gels and transferred to polyvinylidene fluoride (PVDF) membranes. Membranes were blocked overnight at 4°C in Tris-buffered saline with 1% Tween-20 (TBS-T) and 5% milk. […]
# HDACs = test system: HDACs; set-up: method as in PMID 18061431, PMID 30052654; settings: cited from earlier work
# PHD2_181-402 [2] = target: T1, PHD2_181-402; test: Microscale thermophoresis (MST) binding
# T1 sequence (Q9GZT9 181-402): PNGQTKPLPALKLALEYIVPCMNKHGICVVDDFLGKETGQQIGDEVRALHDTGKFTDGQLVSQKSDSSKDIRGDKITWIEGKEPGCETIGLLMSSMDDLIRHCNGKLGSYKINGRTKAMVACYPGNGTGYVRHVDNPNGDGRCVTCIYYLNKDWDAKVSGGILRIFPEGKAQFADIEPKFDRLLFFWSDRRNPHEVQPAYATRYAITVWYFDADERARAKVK
compound,measurement,setting,value
CCCC(=O)O [Butyrate],change of IC50 with increasing 2-OG,"PHD2_181-402 [1]; 2-OG at 1, 5, 10, 40 or 100 µM",did not change
same,Ki,"PHD2_181-402 [1]; calculated from true IC50 with the IC50 to Ki conversion equation of Cer et al., read-out: noncompetitive Ki",5.3 ± 0.5 mM
same,mode of inhibition,"PHD2_181-402 [1]; from 2-OG titration, WaterLOGSY and MST",noncompetitive
same,IC50,PHD2_181-402 [1]; read-out: True IC50,5.3 ± 0.5 mM
same,"mRNA expression of HIF-1α targets Bnip3, Bnip3l, Glut1","murine colon tissue; colon tissue, rectal 100 mM butyrate or 1.5 mM IOX2, 1 h",rescued
same,"mRNA expression of HIF-1α targets Bnip3, Bnip3l, Glut1, butyrate with MCPA","murine colon tissue; colon tissue, rectal 100 mM butyrate with 10 mM MCPA, 1 h",rescued
same,colon tissue 2-OG levels,"murine colon tissue; rectal 100 mM butyrate or 1.5 mM IOX2, 1 h",rescued
same,HDAC inhibition,HDACs,most potently inhibits HDACs
same,Kd,PHD2_181-402 [2],2 ± 3 mM
same,binding to PHD2_181-402 in the presence of 2-OG (MST),"PHD2_181-402 [2]; 25 nM PHD2_181-402, with 500 nM 2-OG",no butyrate binding
